The values that follow are results of earlier work, collected in US7196084B2, “Cdc25 phosphatase inhibitors” (Societe de Conseils de Recherches et d'Applications …, priority 2000, dated 2007).

The target in data set [1] is T1, cdc25-A (Homo sapiens, UniProt P30304).
T1 sequence (P30304 1-524): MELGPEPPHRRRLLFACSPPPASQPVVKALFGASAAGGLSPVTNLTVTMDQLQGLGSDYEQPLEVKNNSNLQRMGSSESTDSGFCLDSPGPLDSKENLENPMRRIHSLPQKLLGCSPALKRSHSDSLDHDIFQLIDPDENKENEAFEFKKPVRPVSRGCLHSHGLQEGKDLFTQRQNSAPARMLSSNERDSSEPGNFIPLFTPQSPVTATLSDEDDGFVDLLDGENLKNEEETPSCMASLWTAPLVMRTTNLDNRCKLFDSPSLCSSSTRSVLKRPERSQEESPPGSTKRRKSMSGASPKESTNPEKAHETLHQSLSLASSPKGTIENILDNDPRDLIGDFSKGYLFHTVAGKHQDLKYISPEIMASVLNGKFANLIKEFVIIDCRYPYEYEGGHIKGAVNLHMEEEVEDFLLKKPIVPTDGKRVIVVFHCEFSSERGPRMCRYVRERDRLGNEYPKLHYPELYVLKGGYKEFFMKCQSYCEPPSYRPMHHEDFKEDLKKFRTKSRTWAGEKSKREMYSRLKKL
To be noted: read-out: inhibition constant (Ki) on cdc25-A; cited from earlier work.

Data set [2] deals with T2, cdc25-C (Homo sapiens, UniProt P30307).
T2 sequence (P30307 1-473): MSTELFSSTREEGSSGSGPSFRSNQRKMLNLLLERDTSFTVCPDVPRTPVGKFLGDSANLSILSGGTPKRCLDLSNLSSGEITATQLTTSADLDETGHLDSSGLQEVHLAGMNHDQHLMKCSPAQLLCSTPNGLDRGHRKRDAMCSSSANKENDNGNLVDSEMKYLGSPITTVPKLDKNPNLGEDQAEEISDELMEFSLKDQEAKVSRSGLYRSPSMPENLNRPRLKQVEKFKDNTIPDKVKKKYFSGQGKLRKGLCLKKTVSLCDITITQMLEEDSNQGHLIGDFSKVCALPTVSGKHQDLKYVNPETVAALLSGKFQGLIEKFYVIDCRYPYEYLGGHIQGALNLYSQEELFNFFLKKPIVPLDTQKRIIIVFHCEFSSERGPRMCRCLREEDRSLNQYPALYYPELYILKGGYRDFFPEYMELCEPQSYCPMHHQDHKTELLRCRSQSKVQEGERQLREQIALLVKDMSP
To be noted: read-out: inhibition constant (Ki) on cdc25-C; cited from earlier work.

In data set [3] the target is T3, cdc25-B2 (Homo sapiens, UniProt P30305).
T3 sequence (P30305 1-539 isoform P30305-3): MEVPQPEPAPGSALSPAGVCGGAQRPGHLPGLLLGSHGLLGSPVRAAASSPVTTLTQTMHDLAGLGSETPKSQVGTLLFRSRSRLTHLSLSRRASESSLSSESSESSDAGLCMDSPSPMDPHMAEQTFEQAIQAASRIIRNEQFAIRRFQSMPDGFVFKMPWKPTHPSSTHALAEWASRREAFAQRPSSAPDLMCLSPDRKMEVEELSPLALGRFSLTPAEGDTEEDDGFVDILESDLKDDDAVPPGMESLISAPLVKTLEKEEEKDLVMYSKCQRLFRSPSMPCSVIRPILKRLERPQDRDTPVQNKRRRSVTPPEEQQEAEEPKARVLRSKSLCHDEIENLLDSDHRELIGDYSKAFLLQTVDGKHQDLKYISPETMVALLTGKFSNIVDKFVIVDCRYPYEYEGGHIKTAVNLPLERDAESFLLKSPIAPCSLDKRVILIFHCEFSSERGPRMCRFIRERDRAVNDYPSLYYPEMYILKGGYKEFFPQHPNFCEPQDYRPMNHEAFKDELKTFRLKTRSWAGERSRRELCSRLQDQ
Conditions: read-out: inhibition constant (Ki) on cdc25-B2; cited from earlier work.

As for `CC1=C(SCCO)C(=O)c2ccccc2C1=O` [Cpd5], the results for the Ki in data set [1], in data set [2] and in data set [3] were 15 µM, 1.3 µM and 1.7 µM, respectively.
